pEC50: −log10 of the molar value. Read-outs that look alike come from different tables or passages of the source.
Assays:
[1] = molecular target: T1, mPRα (Homo sapiens, UniProt Q86WK9); assay: cell-based; settings: for activation of mPRα, alterations at the 17 and 21 positions of the pregnane ring (in words): further analysis of mPRα (pRS316 plasmid, 2% galactose per FIG. 7C); for agonist activity on mPRα (in words): FET3-lacZ, steroids up to 10 μM
T1 construct: Full length and truncated mPRγ and mPRα were expressed in wild type cells grown in 2% galactose from the pGREG536 vector; expressed in transfected cells; host or cells: Saccharomyces cerevisiae (BY4742 wild type; also gpa mutants), GAL1-driven plasmids (TPI1 promoter in pJK90)
T1 sequence (Q86WK9 1-346): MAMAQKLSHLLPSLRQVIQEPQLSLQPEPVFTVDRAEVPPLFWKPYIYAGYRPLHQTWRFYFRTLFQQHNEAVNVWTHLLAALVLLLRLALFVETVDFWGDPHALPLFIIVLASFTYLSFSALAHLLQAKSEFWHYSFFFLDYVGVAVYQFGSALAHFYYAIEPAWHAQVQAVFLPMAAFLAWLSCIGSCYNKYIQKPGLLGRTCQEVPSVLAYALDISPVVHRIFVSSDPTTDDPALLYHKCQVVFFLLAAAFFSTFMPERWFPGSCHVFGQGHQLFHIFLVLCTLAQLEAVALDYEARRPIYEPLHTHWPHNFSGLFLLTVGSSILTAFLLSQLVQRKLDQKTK
Excerpt: Plasmids and primers. Human PAQRs were cloned into various vectors by PCR from commercially/publically available cDNAs. […] The OST4 open reading frame in pJK90 was replaced with the PAQR6 and mPRα open reading frames by gap repair. Primers for all cloning reactions are listed herein. Proteins expressed in pYES260 have an N-terminal 6×-histidine tag followed by a TEV protease cleavage site. Proteins expressed in pGREG536 have an N-terminal 7×-HA tag. Proteins expressed in the pRS316 vector are untagged. The pYES260, pRS316 and pGREG536 vectors allow for galactose-inducible expression via the GAL1 promoter. […] A pRS316-based plasmid containing the STE2 gene under the control of the GAL1 promoter (Feng et al., 2000) was kindly provided by Dr. Nicholas G. Davis (Wayne State University).
Assays and growth conditions. Strains were maintained using standard protocol and grown in synthetic defined (SD) media with the appropriate amino acids to match the auxotrophies of the individual strains. […] In brief, overnights of cells grown in SD-glucose media were re-inoculated into iron-deficient LIM to induce the expression of FET3. […] All ligands were added to the growth medium upon re-inoculation into LIM. For experiments in which steroids were added as ligands, steroids were added from ethanol stocks and “untreated” controls are actually treated with an equal volume of ethanol to control for vehicle effects. […] All experiments were performed at least three times and a representative experiment is shown. EC50 values were obtained using the web-based BioDataFit software using sigmoidal curve-fitting. (web site changbioscience.com/stat/ec50.html)

[2] = test system: FET3; assay: FET3-lacZ reporter in wild type yeast carrying empty expression plasmid; assay type: cell-based, Saccharomyces cerevisiae; settings: no human PAQR
Excerpt: (§1) Assays and growth conditions. Strains were maintained using standard protocol and grown in synthetic defined (SD) media with the appropriate amino acids to match the auxotrophies of the individual strains. Low Iron Medium (LIM) contains EDTA to limit iron-bioavailability and its composition has been previously described (Kupchak et al., 2007). […] In brief, overnights of cells grown in SD-glucose media were re-inoculated into iron-deficient LIM to induce the expression of FET3. 2% galactose was used as a carbon source to induce full expression of PAQR genes driven by the GAL1 promoter, while 0.05% galactose/1.95% raffinose was used for reduced PAQR expression. All ligands were added to the growth medium upon re-inoculation into LIM. For experiments in which steroids were added as ligands, steroids were added from ethanol stocks and “untreated” controls are actually treated with an equal volume of ethanol to control for vehicle effects. Cells were allowed to grow to mid-log phase at which time the activity of the FET3 gene was monitored using a FET3-lacZ promoter-reporter construct. lacZ activities are presented as a percentage of activity seen in untreated cells expressing the appropriate empty expression vector control. For individual experiments, each data point has been done in triplicate and the error bars represent +/−1 standard deviation. All experiments were performed at least three times and a representative experiment is shown. EC50 values were obtained using the web-based BioDataFit software using sigmoidal curve-fitting. (web site changbioscience.com/stat/ec50.html)

[3] = molecular target: T2, mPRγ (Homo sapiens, UniProt Q9NXK6); assay: FET3-lacZ reporter repression in yeast expressing mPRγ; assay type: cell-based; settings: for agonist activity on mPRγ (in words): FET3-lacZ, steroids up to 10 μM
T2 construct: Full length and truncated mPRγ and mPRα were expressed in wild type cells grown in 2% galactose from the pGREG536 vector; expressed in transfected cells; host or cells: Saccharomyces cerevisiae (BY4742 wild type; also gpa mutants), GAL1-driven plasmids
T2 sequence (Q9NXK6 1-330): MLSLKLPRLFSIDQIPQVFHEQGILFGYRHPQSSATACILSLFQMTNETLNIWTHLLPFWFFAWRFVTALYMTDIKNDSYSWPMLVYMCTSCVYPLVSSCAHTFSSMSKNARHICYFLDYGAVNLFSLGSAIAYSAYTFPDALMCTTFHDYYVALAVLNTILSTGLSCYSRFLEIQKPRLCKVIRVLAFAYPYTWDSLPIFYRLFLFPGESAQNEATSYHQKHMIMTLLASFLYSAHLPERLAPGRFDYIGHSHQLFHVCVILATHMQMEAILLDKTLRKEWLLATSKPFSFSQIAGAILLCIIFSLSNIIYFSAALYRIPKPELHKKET
Excerpt: Plasmids and primers. Human PAQRs were cloned into various vectors by PCR from commercially/publically available cDNAs. PAQRs were cloned into the pYES260 (Melcher, 2000), pRS316 (Liu et al., 1992) or pGREG536 (Jansen et al., 2005) expression vectors using gap repair. The pJK90 plasmid containing a Dual Topology Reporter (DTR)-tagged OST4 gene driven by the constitutive TPI1 promoter was kindly provided by Dr. Gunnar von Heijne (Stockholm University) (Kim et al., 2003). The OST4 open reading frame in pJK90 was replaced with the PAQR6 and mPRα open reading frames by gap repair. Primers for all cloning reactions are listed herein. Proteins expressed in pYES260 have an N-terminal 6×-histidine tag followed by a TEV protease cleavage site. Proteins expressed in pGREG536 have an N-terminal 7×-HA tag. Proteins expressed in the pRS316 vector are untagged. The pYES260, pRS316 and pGREG536 vectors allow for galactose-inducible expression via the GAL1 promoter. […] The FET3-lacZ plasmid was previously described (Kupchak et al., 2007). Plasmids derived from pADM4 carrying hyperactive alleles of Gpa1p (Gpa1p^Q323L) (Slessareva et al., 2006) and Gpa2p (Gpa2p^Q300L) (Harashima et al., 2002) driven by the ADH1 promoter were kindly provided by Dr. Henrik Dohlman (UNC Chapel Hill). A pRS316-based plasmid containing the STE2 gene under the control of the GAL1 promoter (Feng et al., 2000) was kindly provided by Dr. Nicholas G. Davis (Wayne State University).
as §1

[4] = read-out: EC50 for the activation of mPRα

Row | SMILES | activation of mPRα, alterations at the 17 and 21 positions of the pregnane ring (in words) [1] | pEC50 [1, 4] | agonist activity on mPRα (in words) [1] | agonist activity on mPRγ (in words) [3] | other results
1 | C[C@]12CC[C@H]3[C@@H](CCC4=CC(=O)CC[C@@]43C)[C@@H]1CC[C@@H]2C(=O)CO [21-hydroxyprogesterone] | similarly effective activators | ~8.00 | – | – | –
2 | C[C@]12CCC(=O)C=C1CC[C@@H]1[C@@H]2CC[C@@]2(C)[C@H]1CC[C@]2(O)C(=O)CO [17α,21-dihydroxyprogesterone] | similarly effective activators | ~8.00 | – | – | –
3 | C[C@]12CCC(=O)C=C1CC[C@@H]1[C@@H]2[C@@H](O)C[C@@]2(C)[C@H]1CC[C@]2(O)C(=O)CO [11β,17α,21-trihydroxyprogesterone] | ineffective agonist | – | – | – | –
4 | CC#C[C@]1(O)CC[C@H]2[C@@H]3CCC4=CC(=O)CCC4=C3[C@@H](c3ccc(N(C)C)cc3)C[C@@]21C [RU-486, Mifepristone] | – | – | weak agonist | weak agonist | effect of ligand on FET3 in cells carrying empty expression plasmid [2]: had no effect; pEC50 ([1]; EC50, mPRα, ligand alone): 4.96; increase in the EC50 of progesterone for the activation of mPRγ ([3]; exposure of cells to 100 nM RU-486): 15 fold; antagonism of mPRγ ([3]; in the presence of 100 nM progesterone, effect disappears at higher concentrations): weakly antagonizes; pEC50 ([3]; mPRγ column of Table 4, ligand alone): 5.17; pEC50 ([3]; mPRγ, weak agonist at high concentrations): < 5.30
5 | C[C@]12CC[C@H]3[C@@H](CCC4=CC(=O)CC[C@@]43C)[C@@H]1CC[C@@H]2O [testosterone] | – | – | no agonist activity | no agonist activity | increase of the EC50 of progesterone for mPRγ ([3]; in the presence of 10 μM of the named steroid): 10 fold
